Values of other authors, collected in EP4379726A1, “THE METHOD FOR PREDICTING THE OCCURRENCE OF THE OFF-TARGET TOXICITY CAUSED BY SIMILARITY BETWEEN A TARGET EPITOPE AND PUTATIVE OFF-TARGET EPITOPES” (Ardigen S.A., priority 2022, dated 2024).

Tested on: AFP 158 -Specific TCR Engineered T Cells
Details: in vitro X-scan, engineered T cells against AFP 158 (FMNKFIYEI)

ILNKFIPDI
activation of the T-cell: could activate the T-cell
